Source: ChEMBL document CHEMBL1201862, “PubChem BioAssay data set” (2004)
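The compound was tested at five concentrations on cells cultured in 96-well plates, with a 48-hour exposure period. Abbreviation: GI50, concentration required for 50% inhibition of growth.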 Active and inactive are the calls of the source. Rule as the data show it: active = GI50 up to about 1.1 µM and inactive = higher. Peptide text beside a SMILES is read from it. * marks the point of attachment. Boc = CC(C)(C)OC(=O)*; OBn = c1ccc(CO*)cc1

What was measured:
Experiment in all cases: NCI tumour cell line growth inhibition, 48 h
[1] = tested on: 786-0
[2] = tested on: TK-10
[3] = tested on: SW-620
[4] = tested on: HOP-62
[5] = tested on: SN12C
[6] = tested on: HCT-15
[7] = tested on: HT-29
[8] = tested on: K562
[9] = tested on: LOX IMVI
[10] = tested on: CCRF-CEM
[11] = tested on: OVCAR-3
[12] = tested on: MDA-MB-435
[13] = tested on: HCC 2998
[14] = tested on: SNB-75
[15] = tested on: SF-295
[16] = tested on: OVCAR-8
[17] = tested on: PC-3
[18] = tested on: UACC-257
[19] = tested on: SF-539
[20] = tested on: Malme-3M
[21] = tested on: SK-OV-3
[22] = tested on: HL-60
[23] = tested on: NCI-H226
[24] = tested on: DU-145
[25] = tested on: MCF7
[26] = tested on: SK-MEL-28
[27] = tested on: NCI/ADR-RES
[28] = tested on: A498
[29] = tested on: SNB-19
[30] = tested on: SK-MEL-5
[31] = tested on: ACHN
[32] = tested on: RPMI-8226
[33] = tested on: NCI-H522
[34] = tested on: UO-31
[35] = tested on: A549
[36] = tested on: U-251
[37] = tested on: SK-MEL-2
[38] = tested on: KM12
[39] = tested on: OVCAR-4
[40] = tested on: NCI-H23
[41] = tested on: HCT-116
[42] = tested on: M14
[43] = tested on: MOLT-4
[44] = tested on: HOP-92
[45] = tested on: EKVX
[46] = tested on: MDA-N
[47] = tested on: UACC-62
[48] = tested on: CAKI-1
[49] = tested on: RXF 393
[50] = tested on: IGROV-1
[51] = tested on: MDA-MB-231
[52] = tested on: T47D
[53] = tested on: COLO 205
[54] = tested on: NCI-H460
[55] = tested on: SR
[56] = tested on: SF-268
[57] = tested on: OVCAR-5

## [N-]=[N+]=C1N=CN=C1c1nc[nH]n1
[1]
  GI50: 21.9 µM (inactive)
[2]
  GI50: 51.2 µM (inactive)
[3]
  GI50: 22.1 µM (inactive)
[4]
  GI50: 35.7 µM (inactive)
[5]
  GI50: 20.9 µM (inactive)
[6]
  GI50: 63 µM
[7]
  GI50: > 100 µM (inactive)
[8]
  GI50: 14.9 µM (inactive)
[9]
  GI50: 12 µM (inactive)
[10]
  GI50: 3.98 µM (inactive)
[11]
  GI50: 32.2 µM (inactive)
[12]
  GI50: 31.3 µM (inactive)
[13]
  GI50: 63 µM (inactive)
[14]
  GI50: 32.3 µM (inactive)
[15]
  GI50: 82.4 µM (inactive)
[16]
  GI50: 21.4 µM (inactive)
[17]
  GI50: > 100 µM (inactive)
[18]
  GI50: 57 µM (inactive)
[19]
  GI50: 15.3 µM (inactive)
[20]
  GI50: 10.9 µM (inactive)
[21]
  GI50: > 100 µM (inactive)
[22]
  GI50: 5.83 µM (inactive)
[23]
  GI50: > 100 µM (inactive)
[24]
  GI50: 48.5 µM (inactive)
[25]
  GI50: 81.1 µM (inactive)
[26]
  GI50: 76.7 µM (inactive)
[27]
  GI50: 22.1 µM (inactive)
[28]
  GI50: 20.2 µM (inactive)
[29]
  GI50: 80.2 µM (inactive)
[30]
  GI50: 57.8 µM (inactive)
[31]
  GI50: 39 µM (inactive)
[32]
  GI50: 10.8 µM (inactive)
[33]
  GI50: 30.7 µM (inactive)
[34]
  GI50: 19.6 µM (inactive)
[35]
  GI50: > 100 µM (inactive)
[36]
  GI50: 27 µM (inactive)
[37]
  GI50: 94.8 µM (inactive)
[38]
  GI50: 93.5 µM (inactive)
[39]
  GI50: 31.8 µM (inactive)
[40]
  GI50: 34.1 µM (inactive)
[41]
  GI50: 25 µM (inactive)
[42]
  GI50: 40.6 µM (inactive)
[43]
  GI50: 6.27 µM (inactive)
[44]
  GI50: 12.4 µM (inactive)
[45]
  GI50: 40 µM (inactive)
[46]
  GI50: 41.9 µM (inactive)
[47]
  GI50: 16.6 µM (inactive)
[48]
  GI50: 6.31 µM (inactive)
[49]
  GI50: 48.8 µM (inactive)
[50]
  GI50: 29 µM (inactive)
[51]
  GI50: 29 µM (inactive)
[52]
  GI50: 17.4 µM (inactive)
[53]
  GI50: 45.1 µM (inactive)

## CC(NC(=O)C(NC(=O)OC(C)(C)C)C(C)C)C(=O)N1CCCC1C(=O)NCC(=O)NC(C(=O)NCC(=O)OCc1ccccc1)C(C)C (stereo not given) (Boc-VAPGVG-OBn; configuration not given here)
[1]
  GI50: > 100 µM (inactive)
[2]
  GI50: > 100 µM (inactive)
[3]
  GI50: > 100 µM (inactive)
[4]
  GI50: > 100 µM (inactive)
[5]
  GI50: > 100 µM (inactive)
[6]
  GI50: > 100 µM
[7]
  GI50: > 100 µM (inactive)
[8]
  GI50: > 100 µM (inactive)
[9]
  GI50: > 100 µM (inactive)
[10]
  GI50: > 100 µM (inactive)
[11]
  GI50: > 100 µM (inactive)
[12]
  GI50: > 100 µM (inactive)
[54]
  GI50: > 100 µM (inactive)
[13]
  GI50: > 100 µM (inactive)
[14]
  GI50: 71.3 µM (inactive)
[15]
  GI50: > 100 µM (inactive)
[16]
  GI50: > 100 µM (inactive)
[17]
  GI50: > 100 µM (inactive)
[18]
  GI50: > 100 µM (inactive)
[19]
  GI50: > 100 µM (inactive)
[20]
  GI50: > 100 µM (inactive)
[21]
  GI50: > 100 µM (inactive)
[55]
  GI50: > 100 µM (inactive)
[22]
  GI50: > 100 µM (inactive)
[24]
  GI50: > 100 µM (inactive)
[25]
  GI50: > 100 µM (inactive)
[26]
  GI50: > 100 µM (inactive)
[27]
  GI50: > 100 µM (inactive)
[28]
  GI50: > 100 µM (inactive)
[29]
  GI50: > 100 µM (inactive)
[31]
  GI50: > 100 µM (inactive)
[32]
  GI50: > 100 µM (inactive)
[33]
  GI50: > 100 µM (inactive)
[34]
  GI50: > 100 µM (inactive)
[36]
  GI50: > 100 µM (inactive)
[37]
  GI50: > 100 µM (inactive)
[39]
  GI50: > 100 µM (inactive)
[40]
  GI50: > 100 µM (inactive)
[41]
  GI50: > 100 µM (inactive)
[42]
  GI50: > 100 µM (inactive)
[43]
  GI50: > 10 µM (inactive)
[44]
  GI50: > 100 µM (inactive)
[56]
  GI50: > 100 µM (inactive)
[45]
  GI50: > 100 µM (inactive)
[46]
  GI50: > 100 µM (inactive)
[47]
  GI50: 66.4 µM (inactive)
[48]
  GI50: > 100 µM (inactive)
[50]
  GI50: 62.1 µM (inactive)
[51]
  GI50: > 100 µM (inactive)
[57]
  GI50: > 100 µM (inactive)
[52]
  GI50: > 100 µM (inactive)
[53]
  GI50: > 100 µM (inactive)
